Data on 6 compounds can be found in publication PMC9322314 (2022).

Molecules are shown by their SMILES.

The subject of test [1] is 22AG (DNA, G4) AGGGTTAGGGTTAGGGTTAGGG
The experiment in a line: CD titration, Hill fit. The following applies: 10 mM Li cacodylate pH 7.2, 3 μM DNA.

The subject of test [2] is FdxT (DNA, hairpin, hexaethyleneglycol (HEG) loop between 9 and 10) TATAGCTATATAGCTATA
The experiment in a line: FRET melting. The following applies: 10 mM K+, 90 mM Li+; 10 mM Li cacodylate pH 7.2, 0.2 μM DNA, 2 μM compound.

In test [3] the test system is F(c-Kit2)T (DNA, G4) GGGCGGGCGCGAGGGAGGGG
The experiment in a line: FRET melting. As to conditions: 1 mM K+, 99 mM Li+; 10 mM Li cacodylate pH 7.2, 0.2 μM DNA, 2 μM compound.

For test [4], the system named is F(Pu24T)T (DNA, G4) TGAGGGTGGTGAGGGTGGGGAAGG
Nature of the test: FRET melting. The following applies: 1 mM K+, 99 mM Li+; 10 mM Li cacodylate pH 7.2, 0.2 μM DNA, 20 μM compound.

For test [5], the system named is F(CEB25wt)T (DNA, G4) AAGGGTGGGTGTAAGTGTGGGTGGGT
The experiment in a line: FRET melting. The following applies: 1 mM K+, 99 mM Li+; 10 mM Li cacodylate pH 7.2, 0.2 μM DNA, 2 μM compound.

In test [6] the test system is F(21CTA)T (DNA, G4) GGGCTAGGGCTAGGGCTAGGG
Nature of the test: FRET melting. The following applies: 10 mM K+, 90 mM Li+; 10 mM Li cacodylate pH 7.2, 0.2 μM DNA, 2 μM compound.

In test [7] the test system is F(c-Myc)T (DNA, G4) TTGAGGGTGGGTAGGGTGGGTAA
Nature of the test: FRET melting. The following applies: 1 mM K+, 99 mM Li+; 10 mM Li cacodylate pH 7.2, 0.2 μM DNA, 2 μM compound.

Test [8] relates to F21T (DNA, G4) GGGTTAGGGTTAGGGTTAGGG
The experiment in a line: FRET melting. The following applies: 10 mM K+, 90 mM Li+; 10 mM Li cacodylate pH 7.2, 0.2 μM DNA, 20 μM compound.

In test [9] the test system is Pu24T (32P-labelled) (DNA, G4) TGAGGGTGGTGAGGGTGGGGAAGG
Nature of the test: photoalkylation (365 nm), denaturing PAGE. As to conditions: 100 mM K+; covalent; 10 mM Li cacodylate pH 7.2, 10 μM DNA, 20 μM compound.

The subject of test [10] is 22AG (32P-labelled) (DNA, G4) AGGGTTAGGGTTAGGGTTAGGG
Nature of the test: photoalkylation (365 nm), denaturing PAGE. As to conditions: 100 mM K+; covalent; 10 mM Li cacodylate pH 7.2, 10 μM DNA, 20 μM compound.

Turning to `CN(C)Cc1cc2cc(C#Cc3cccc(C#Cc4ccc5cc(O)c(CN(C)C)cc5c4)c3)ccc2cc1O`, the binding result is given as “yes” in test [1] (100 mM K+) and “no” in test [2].
For the compound `C[N+](C)(C)Cc1cc2cc(C#Cc3cccc(C#Cc4ccc5cc(O)c(C[N+](C)(C)C)cc5c4)c3)ccc2cc1O`, the binding entry in test [3] was “weak”; in [1] (100 mM K+), “yes”; in [1] (100 mM Na+), “yes”; in test [2] it was “no”; in test [5] it was “weak”; in test [6], “weak”. Further, the binding result in [7] was “yes”. Further, the “ΔT 1/2” value in [4] worked out at 29.0 °C; in test [8] it was 33.3 °C.
For the compound `C[N+](C)(C)Cc1ccc(C#Cc2cccc(C#Cc3ccc(C[N+](C)(C)C)c(O)c3)c2)cc1O`, the binding entry in test [9] is “yes”; in test [1] (100 mM K+), “yes”; in test [1] (100 mM Na+) it was “yes”; in test [2], “no”; in [10], “yes”.
For `CN(C)Cc1cc(C#Cc2cccc(C#Cc3ccc(O)c(CN(C)C)c3)c2)ccc1O`, the binding result is recorded as “yes” in test [9]; “yes” in [1] (100 mM K+); “yes” in [1] (100 mM Na+); “no” in test [2]; “yes” in [10].
For the compound `C[N+](C)(C)Cc1cc(C#Cc2cccc(C#Cc3ccc(O)c(C[N+](C)(C)C)c3)c2)ccc1O`, the binding entry in test [9] is given as “yes”; in test [1] (100 mM K+), “yes”; in [1] (100 mM Na+), “yes”; in [2] it was “no”; in test [10], “yes”.
For `CN(C)Cc1ccc(C#Cc2cccc(C#Cc3ccc(CN(C)C)c(O)c3)c2)cc1O`, the values for the binding result in test [1] (100 mM K+), in test [1] (100 mM Na+) and in test [2] were “yes”, “yes” and “no”, respectively.
